Drawing on US20250179066A1, “ZWITTERIONIC ANTIBACTERIAL COMPOUNDS” (Hoffmann-La Roche Inc., priority 2022, published 2025), this text covers IC90 for 16 compounds.

Where a name gives a salt, the structure may show the parent alone.

The subject of the assay is Acinetobacter baumannii ATCC17961. Nature of the assay: Antimicrobial susceptibility testing: 90% growth inhibitory concentration (IC90) determination. The assay is classed as cell-based. As to conditions: Acinetobacter baumannii, ATCC17961, 16 h, 90% growth inhibitory concentration against Acinetobacter baumannii ATCC17961, Iso-Sensitest broth, OD 600 nm over 16 h; read-out: ATCC 17961 IC90. A digest of the protocol: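 OD600 monitored each minute over 16 h at 35±2° C for bacteria (~5×10^5 CFU/mL final) in Iso-Sensitest medium with 10-point twofold compound series (e.g. 10-0.0195 μM final). Concentration giving 90% growth inhibition in log phase reported as IC90.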
For `CN(C)c1ccc(-n2cc(-c3cnc(C(=O)Nc4ccc(C(=O)N5CCN(C(=O)[C@H]6CC[N@+](CC(=O)O)(CC7CNC7)CC6)CC5)c(F)c4)n3C)c(C(F)(F)F)n2)c(F)c1` [Example 109, cis-2-[1-(azetidin-3-ylmethyl)-4-[4-[4-[[5-[1-[4-(dimethylamino)-2-fluoro-phenyl]-3-(trifluoromethyl)pyrazol-4-yl]-1-methyl-imidazole-2-carbonyl]amino]-2-fluoro-benzoyl]piperazine-1-carbonyl]piperidin-1-ium-1-yl]acetic acid; 2,2,2-trifluoroacetate], the 90% effect concentration (IC90) – broadly, the concentration needed for an effect of 90% – came out at 213 nM.
For `Cn1c(-c2cn(-c3cc4[nH]c(CCN)cc4cn3)nc2C(F)(F)F)cnc1C(=O)Nc1ccc(C(=O)N2CCN(C(=O)[C@H]3CC[N@+](CC(=O)O)(CC4CNC4)CC3)CC2)c(Cl)c1` [Example 142, cis-2-[4-[4-[4-[[5-[1-[2-(2-aminoethyl)-1H-pyrrolo[3,2-c]pyridin-6-yl]-3-(trifluoromethyl)pyrazol-4-yl]-1-methyl-imidazole-2-carbonyl]amino]-2-chloro-benzoyl]piperazine-1-carbonyl]-1-(azetidin-3-ylmethyl)piperidin-1-ium-1-yl]acetic acid;formate] the value was 69.5 nM; for `Cn1c(-c2cn(-c3ccc(NCc4ccccn4)cn3)nc2C(F)(F)F)cnc1C(=O)Nc1ccc(C(=O)N2CCN(C(=O)C3CC[N+](CC(=O)O)(CC4CNC4)CC3)CC2)c(Cl)c1` (stereo not shown) [Example 23, 2-[1-(azetidin-3-ylmethyl)-4-[4-[2-chloro-4-[[1-methyl-5-[1-[5-(2-pyridylmethylamino)-2-pyridyl]-3-(trifluoromethyl)pyrazol-4-yl]imidazole-2-carbonyl]amino]benzoyl]piperazine-1-carbonyl]piperidin-1-ium-1-yl]acetic acid. 1:1 2,2,2-trifluoroacetate], 340 nM; for `Cn1c(-c2cn(-c3cc4[nH]cc(CCO)c4cn3)nc2C(F)(F)F)cnc1C(=O)Nc1ccc(C(=O)N2CCN(C(=O)[C@H]3CC[N@+](CC(=O)O)(CC4CNC4)CC3)CC2)c(Cl)c1` [Example 194, cis-2-[1-(azetidin-3-ylmethyl)-4-[4-[2-chloro-4-[[5-[1-[3-(2-hydroxyethyl)-1H-pyrrolo[3,2-c]pyridin-6-yl]-3-(trifluoromethyl)pyrazol-4-yl]-1-methyl-imidazole-2-carbonyl]amino]benzoyl]piperazine-1-carbonyl]piperidin-1-ium-1-yl]acetic acid. 1:1 2,2,2-trifluoroacetate], 168 nM.
For `CC[C@@H]1CN(C(=O)C2CC[N+](CC(=O)O)(CC3CNC3)CC2)CCN1C(=O)c1ccc(NC(=O)c2ncc(-c3cn(-c4ccc(N)cn4)nc3C(F)(F)F)n2C)cc1Cl` (stereo partly drawn) [Example 78, 2-[4-[(3R)-4-[4-[[5-[1-(5-amino-2-pyridyl)-3-(trifluoromethyl)pyrazol-4-yl]-1-methyl-imidazole-2-carbonyl]amino]-2-chloro-benzoyl]-3-ethyl-piperazine-1-carbonyl]-1-(azetidin-3-ylmethyl)piperidin-1-ium-1-yl]acetic acid. 1:1 formate] the value was 1110 nM; for `Cn1c(-c2cn(-c3ccc4c(n3)CCN4)nc2C(F)(F)F)cnc1C(=O)Nc1ccc(C(=O)N2CCN(C(=O)C3CC[N+](CC(=O)O)(CC4CNC4)CC3)CC2)c(Cl)c1` (stereo not shown) [Example 61, 2-[1-(azetidin-3-ylmethyl)-4-[4-[2-chloro-4-[[5-[1-(2,3-dihydro-1H-pyrrolo[3,2-b]pyridin-5-yl)-3-(trifluoromethyl)pyrazol-4-yl]-1-methyl-imidazole-2-carbonyl]amino]benzoyl]piperazine-1-carbonyl]piperidin-1-ium-1-yl]acetic acid. 1:1 2,2,2-trifluoroacetate], 670 nM; for `Cc1cc(NC(=O)c2ncc(-c3cn(-c4ccc(N)cc4F)nc3C(F)(F)F)n2C)ccc1C(=O)N1CCN(C(=O)[C@H]2CC[N@+](CC(=O)O)(CC3CNC3)CC2)CC1` [Example 152, cis-2-[4-[4-[4-[[5-[1-(4-amino-2-fluoro-phenyl)-3-(trifluoromethyl)pyrazol-4-yl]-1-methyl-imidazole-2-carbonyl]amino]-2-methyl-benzoyl]piperazine-1-carbonyl]-1-(azetidin-3-ylmethyl)piperidin-1-ium-1-yl]acetic acid. 1:1 2,2,2-trifluoroacetate], 421 nM.
Regarding `Cn1c(-c2cn(-c3ccc(N)cn3)nc2C(F)(F)F)cnc1C(=O)Nc1ccc(C(=O)N2CCN(C(=O)C3CC[N+](CCCN)(CC(=O)O)CC3)CC2)c(Cl)c1` (stereo not shown) [Example 30, 2-[1-(3-aminopropyl)-4-[4-[4-[[5-[1-(5-amino-2-pyridyl)-3-(trifluoromethyl)pyrazol-4-yl]-1-methyl-imidazole-2-carbonyl]amino]-2-chloro-benzoyl]piperazine-1-carbonyl]piperidin-1-ium-1-yl]acetic acid. 1:1 2,2,2-trifluoroacetate], the concentration for an effect of 90% (IC90) came out at 370 nM.
To `Cn1c(-c2cn(-c3cc4[nH]c(C(=O)N5CCOC(F)(F)C5)cc4cn3)nc2C(F)(F)F)cnc1C(=O)Nc1ccc(C(=O)N2CCN(C(=O)[C@H]3CC[N@+](CC(=O)O)(CC4CNC4)CC3)CC2)c(Cl)c1` [Example 119, cis-2-[1-(azetidin-3-ylmethyl)-4-[4-[2-chloro-4-[[5-[1-[2-(2,2-difluoromorpholine-4-carbonyl)-1H-pyrrolo[3,2-c]pyridin-6-yl]-3-(trifluoromethyl)pyrazol-4-yl]-1-methyl-imidazole-2-carbonyl]amino]benzoyl]piperazine-1-carbonyl]piperidin-1-ium-1-yl]acetic acid. 1:1 2,2,2-trifluoroacetate] belongs 236 nM; to `Cn1c(-c2cn(-c3ccc(N)cn3)nc2C(F)(F)F)cnc1C(=O)Nc1ccc(C(=O)N2CCN(C(=O)CC[C@H](N)C(=O)O)CC2)c(Cl)c1` [Example 90, (2S)-2-amino-5-[4-[4-[[5-[1-(5-amino-2-pyridyl)-3-(trifluoromethyl)pyrazol-4-yl]-1-methyl-imidazole-2-carbonyl]amino]-2-chloro-benzoyl]piperazino]-5-keto-valeric acid. 1:1 2,2,2-trifluoroacetic acid], 1520 nM; to `Cn1c(-c2cn(-c3cc4[nH]c(CO)cc4cn3)nc2C(F)(F)F)cnc1C(=O)Nc1ccc(C(=O)N2CCN(C(=O)[C@H]3CC[N@+](CC(=O)O)(CC4CNC4)CC3)CC2)c(Cl)c1` [Example 180, cis-2-[1-(azetidin-3-ylmethyl)-4-[4-[2-chloro-4-[[1-methyl-5-[1-(2-methylol-1H-pyrrolo[3,2-c]pyridin-6-yl)-3-(trifluoromethyl)pyrazol-4-yl]imidazole-2-carbonyl]amino]benzoyl]piperazine-1-carbonyl]piperidin-1-ium-1-yl]acetic acid. 1:1 2,2,2-trifluoroacetate], 135 nM.
For `CNc1ccc(-n2cc(-c3cnc(C(=O)Nc4ccc(C(=O)N5CCN(C(=O)C6CC[N+](CC(=O)O)(CC7CNC7)CC6)CC5)c(Cl)c4)n3C)c(C(F)(F)F)n2)nc1` (stereo not shown) [Example 25, 2-[1-(azetidin-3-ylmethyl)-4-[4-[2-chloro-4-[[1-methyl-5-[1-[5-(methylamino)-2-pyridyl]-3-(trifluoromethyl)pyrazol-4-yl]imidazole-2-carbonyl]amino]benzoyl]piperazine-1-carbonyl]piperidin-1-ium-1-yl]acetic acid. 1:1 formate] the value was 350 nM; for `Cn1c(-c2cn(-c3cc4[nH]c(C(=O)N5C[C@H]6CNC[C@H]6C5)cc4cn3)nc2C(F)(F)F)cnc1C(=O)Nc1ccc(C(=O)N2CCN(C(=O)[C@H]3CC[N@+](CC(=O)O)(CC4CNC4)CC3)CC2)c(Cl)c1` [Example 112, cis-2-[4-[4-[4-[[5-[1-[2-[(3aS,6aR)-2,3,3a,4,6,6a-hexahydro-1H-pyrrolo[3,4-c]pyrrole-5-carbonyl]-1H-pyrrolo[3,2-c]pyridin-6-yl]-3-(trifluoromethyl)pyrazol-4-yl]-1-methyl-imidazole-2-carbonyl]amino]-2-chloro-benzoyl]piperazine-1-carbonyl]-1-(azetidin-3-ylmethyl)piperidin-1-ium-1-yl]acetic acid. 1:1 2,2,2-trifluoroacetate], 356 nM.
For `Cn1c(-c2cn(-c3ccc(N)nc3)nc2C(F)(F)F)cnc1C(=O)Nc1ccc(C(=O)N2CCN(C(=O)C3CC[N+](CC(=O)O)(CC4CNC4)CC3)CC2)c(Cl)c1` (stereo not shown) [Example 7, 2-[4-[4-[4-[[5-[1-(6-amino-3-pyridyl)-3-(trifluoromethyl)pyrazol-4-yl]-1-methyl-imidazole-2-carbonyl]amino]-2-chloro-benzoyl]piperazine-1-carbonyl]-1-(azetidin-3-ylmethyl)piperidin-1-ium-1-yl]acetic acid. 1:1 2,2,2-trifluoroacetate] the value was 1480 nM.
For the compound `Cn1c(-c2cn(-c3ccc4[nH]c(CCN)cc4n3)nc2C(F)(F)F)cnc1C(=O)Nc1ccc(C(=O)N2CCN(C(=O)[C@H]3CC[N@+](CC(=O)O)(CC4CNC4)CC3)CC2)c(Cl)c1` [Example 129, cis-2-[4-[4-[4-[[5-[1-[2-(2-aminoethyl)-1H-pyrrolo[3,2-b]pyridin-5-yl]-3-(trifluoromethyl)pyrazol-4-yl]-1-methyl-imidazole-2-carbonyl]amino]-2-chloro-benzoyl]piperazine-1-carbonyl]-1-(azetidin-3-ylmethyl)piperidin-1-ium-1-yl]acetic acid; chloride], the 90% effect concentration (IC90) was determined as 355 nM.
To `Cc1cc(NC(=O)c2ncc(-c3cn(-c4ccc5[nH]c(CCO)cc5n4)nc3C(F)(F)F)n2C)ccc1C(=O)N1CCN(C(=O)[C@H]2CC[N@@+](CCCN)(CC(=O)O)CC2)CC1` [Example 127, cis-2-[1-(3-aminopropyl)-4-[4-[4-[[5-[1-[2-(2-hydroxyethyl)-1H-pyrrolo[3,2-b]pyridin-5-yl]-3-(trifluoromethyl)pyrazol-4-yl]-1-methyl-imidazole-2-carbonyl]amino]-2-methyl-benzoyl]piperazine-1-carbonyl]piperidin-1-ium-1-yl]acetic acid. 1:1 2,2,2-trifluoroacetate] belongs 364 nM.
